Measured values published in US8138315B2, “Anti-alpha V immunoliposome compositions, methods and uses” (Centocor Ortho Biotech Inc., priority 2007, dated 2012).

What was measured:
[1] = system: murine melanoma cell line, B16F10; assay: Cytotoxicity assay (cell viability, CellTiter 96), negative control; assay type: cell-based; parameters: unit not given beside the values; conditions: Murine melanoma B16-F10; 10 minutes at 37° C., washed, plated 3 and 6 days
[2] = system: A375.S2, human melanoma cell line; assay: Cytotoxicity assay (cell viability, CellTiter 96); assay type: cell-based; parameters: unit not given beside the values; conditions: 10 minutes at 37° C., washed, plated 3 and 6 days
Procedure: (§1) Several human tumor cells bearing human αVβ3/5 integrins were used: (1) A375.S2, human melanoma cell line; (2) MDA-MB-231, Human Breast Carcinoma Cell line; (3) A2780, Human Ovarian Carcinoma Cell line; (4) HT29, Human Colon Carcinoma Cell line; (5) A549, Human Lung Carcinoma Cell line.
(§2) Cell viability was assayed using the CellTiter 96 AQueous One Solution Cell Proliferation Assay from Promega (Cat No. G3581). A Spectra Max 250 plate reader was used, with a reading wavelength of 490 nm. Confocal Microscopy was done using a Nikon, Eelipse, E600. An Eppendorf centrifuge 5804 was used.
(§3) Liposomes bearing 15:1, 40:1, 90:1 and 180:1 alpha-integrin Fab targeting ligands per liposome and containing doxorubicin were prepared as described in Example 1 and 2. These targeted-liposomes were used in the cytotoxicity assay using the various cells lines, as described below.
(§4) Cells were harvested by scraping and then resuspended at 37° C. for 1 hour to obtain individualized cells. About 1 million cells of each tumor type were counted and placed in individual centrifugation tubes. The tubes were centrifuged to obtain a cell pellet. The cells were then incubated with the targeted liposome compositions containing doxorubicin for 10 minutes at 37° C., with mild shaking, 140 rpm. Cells were treated with a quantity of liposomes sufficient to give a doxorubicin concentration of 40 μg/mL. […]

[3] = system: A2780, Human Ovarian Carcinoma Cell line; assay: Cytotoxicity assay (cell viability, CellTiter 96); assay type: cell-based; parameters: unit not given beside the values; conditions: ovarian cancer A2780; 10 minutes at 37° C., washed, plated 3 and 6 days
Procedure: as §1, §2, §3, §4

A375.S2 cells = assay: Binding and internalization of liposomes at 37° C., confocal microscopy; assay type: cell-based, human; conditions: 37° C. for 10 min, washed, incubated 1 hour
Procedure: as §1
Liposomes were prepared as described in Example 1, except in two aspects. First, Dextran Alexa Fluor 488 (Cat No. D-22910, from Molecular Probes) was included in the hydration buffer during the passive encapsulation step of liposome formation, and after the sizing step dialysis was used to remove any unencapsulated Alexa. Second, instead of inserting Fab-PEG-lipid into the liposome bilayer, maleimide-PEG-lipid (MalPEG-DSPE) was inserted into the liposome bilayer at approximately 800 MalPeg-DSPE per liposome at 60° C. for 1 Hr. The insertion step was followed by the conjugation of the Fab to the reactive end of the lipopolymer. The appropriate amount of Fab was added to the MalPEG-DSPE inserted liposomes to achieve a 90:1 anti-alphaV-Fab targeting ligands per liposome ratio. These liposomes were used in the binding and internalization studies described below. […]
A375.S2 cells were harvested by scraping and then resuspended to obtain individualized cells and rejuvenated for 1 hour, at 37° C. About 1 million cells of each tumor type were counted and distributed into individual centrifugation tubes. […]

SMILES: COc1cccc2c1C(=O)c1c(O)c3c(c(O)c1C2=O)C[C@@](O)(C(=O)CO)C[C@@H]3O[C@H]1C[C@H](N)[C@H](O)[C@H](C)O1 [free dox, doxorubicin]
- IC50 of doxorubicin [1]: >200
- IC50 of doxorubicin [2]: >200
- IC50 of doxorubicin [3]: >200
- binding and internalization into A375.S2 cells (A375.S2 cells): drug internalization is evident
